Each block holds one compound with its values, some of them ahead of it.
Columns and labels:
[1] = system: OVCAR3 and OVCAR4 cisplatin-resistant cells; assay: CellTiter Glo cell viability assay; assay type: cell-based; conditions: Homo sapiens; 48 hour time point; cell line not stated in legend (FIG. 43A)
Method: Cells were trysanised and counted using the Countess™ Automated Cell Counter. 5,000 cells were seeded into each well of a 96 well plate. Cells were allowed to adhere overnight and were then treated with titrated concentrations of cisplatin, cedirianib and nintedanib (10 μM to 0.005 μM concentration). […] The 96 well plate was allowed to stand at room temperature for 20-30 mins. In the meantime the CellTiter-Glo Luminescent was allowed to thaw from the −20 freezer. Following the 20-30 minute incubation, 75 μl of the CellTiter-Glo Luminescent was added per well, this was then shaken for 2 minutes and then allowed to stand for 10 minutes. The analysis was performed using the Bioscience BioTek plate reader.

OVCAR3-CP cells = assay: 10-day colony formation assay, OVCAR3-CP (cisplatin resistant); assay type: cell-based, human; conditions: for fold change: cisplatin-resistant OVCAR3 relative to OVCAR3 cisplatin-naïve, colony formation
Method: Cells were seeded at predetermined densities, 24 hours later treated with drug, which was replenished every 3-4 days. After 10 days, cells were washed with PBS, fixed in methanol, stained with crystal violet and colonies counted. The surviving fraction (SF) for a given dose was calculated and dose-response curves plotted and IC50 generated using Graph Pad Prism™ 5. Receiver operator curves (ROC) were plotted by dicotomising the IC50 values based on the median of the IC50 and defining the higher IC50 values as resistant and the lower IC50 values as sensitive. The gene signatures associated with the cell lines were plotted based on sensitive and resistant cells. Additionally ROCs were plotted by dicotomising the signature scores based on the median of the scores and defining the higher signature score as signature positive and the lower signature scores as signature negative. The IC50s associated with the cell lines were plotted based on signature positive and signature negative cells. OVCAR3 and OVCAR4 cells were trypsinised and relevant cell numbers were seeded into P90 plates. Cells were allowed to adhere overnight. The following day media was removed and replaced with media containing 25 nM cisplatin. The concentration of cisplatin was increased every 2 weeks, doubling the concentration at every increment. Batches of cells were frozen every two weeks upon increasing the concentration of cisplatin. Once cells were stably growing at 200 nM cisplatin, sensitivity to cisplatin was tested by clonogenic assay. Cells were continuously grown in 200 nM cisplatin.

OVCAR3-WT cells = assay: 10-day colony formation assay, OVCAR3-WT (cisplatin sensitive/naive); assay type: cell-based, human
Method: (§1) Cells were seeded at predetermined densities, 24 hours later treated with drug, which was replenished every 3-4 days. After 10 days, cells were washed with PBS, fixed in methanol, stained with crystal violet and colonies counted. The surviving fraction (SF) for a given dose was calculated and dose-response curves plotted and IC50 generated using Graph Pad Prism™ 5. Receiver operator curves (ROC) were plotted by dicotomising the IC50 values based on the median of the IC50 and defining the higher IC50 values as resistant and the lower IC50 values as sensitive. The gene signatures associated with the cell lines were plotted based on sensitive and resistant cells. Additionally ROCs were plotted by dicotomising the signature scores based on the median of the scores and defining the higher signature score as signature positive and the lower signature scores as signature negative. The IC50s associated with the cell lines were plotted based on signature positive and signature negative cells.

[2] = system: relapsed platinum sensitive epithelial ovarian cancer; conditions: cited from earlier work
[3] = system: OVCAR3 and OVCAR4 cisplatin-resistant cells; assay: Western blot of VEGFa protein expression; assay type: cell-based, human; conditions: IC50 concentration; western blot (FIG. 43B)
[4] = system: OVCAR3 cisplatin resistant cell line; assay: Western blot of EMT and MAPK pathway markers, OVCAR3 cisplatin resistant cells; assay type: cell-based, human; conditions: 1 nM and 10 nM, 24 hour treatment; western blot (FIG. 30b)
[5] = system: OVCAR3-WT, OVCAR3-CP, OVCAR4-WT and OVCAR4-CP cells; assay: 10-day colony formation assay with ALM201 (FIG. 30c); assay type: cell-based, human; conditions: OVCAR3 and OVCAR4 cells (FIG. 30c)
Method: as §1
OVCAR3 and OVCAR4 cells were trypsinised and relevant cell numbers were seeded into P90 plates. Cells were allowed to adhere overnight. The following day media was removed and replaced with media containing 25 nM cisplatin. The concentration of cisplatin was increased every 2 weeks, doubling the concentration at every increment. […]

[6] = system: OVCAR3 platinum resistant cell line; assay: xCELLigence migration assay; assay type: cell-based, human; conditions: 0.1 nM, 1 nM and 10 nM (p=0.08544, p=0.015522, p=0.036739) (FIG. 30d)
Method: The migration assay was performed using the xCELLigence RTCA DP system and carried out with CIM-plate 16 (ACEA Bioscience). Endothelial progenitor cell conditioned media, fresh endothelial media with growth factors (VEGF, IGF-1, bFGF, EGF) with 10% foetal bovine serum (FBS) and endothelial media with 10% foetal bovine serum (FBS) only, were the three chemo-attractant conditions used in the bottom chamber. 160 μl of the chemo-attractant was added to each bottom chamber of a CIM-plate 16. The CIM-Plate 16 is assembled by placing the top chamber onto the bottom chamber and snapping the two together. 30 μl pf serum-free medium is placed in the top chamber to hydrate and pre-incubate the membrane for 2 hours in the CO2 incubator at 37° C. before obtaining a background measurement. The protocol is optimised for the two paired cancer cell lines: OVCAR3, OVCAR4 parental and OVCAR3, OVCAR4 platinum resistant cell lines. […] Once the CIM-Plate 16 has been equilibrated, it is placed in the RTCA DP station and the background cell-index values are measured. […] The CIM-Plate 16 is placed in the RTCA DP station and migration is monitored every 5 minutes for several hours. […] For quantification of the migration rate, the slope of the curve was used to determine the rate if change in cell index. The average and standard deviation slope values were then quantified relative to the controls.

Kuramochi cells = assay: Western blot of EMT and MAPK pathway markers, Kuramochi cells; assay type: cell-based; conditions: western blot (FIG. 30a)
[7] = system: OVCAR3 platinum resistant cell line; assay: xCELLigence invasion assay; assay type: cell-based, human; conditions: 0.1 nM, 1 nM and 10 nM (p=0.0211, p=0.0026, p=0.3373) (FIG. 30d)
Method: The invasion assay was performed using the xCELLigence RTCA DP system and carried out with CIM-plate 16 (ACEA bioscience).
Normal cell media growth conditions (RPMI 1640, 1% L-Glut and 20% FCS) was the chemoattractant condition used in the bottom chamber. 160 μl of the chemoattractant was added to each bottom chamber of a CIM-plate 16. The CIM-Plate 16 is assembled by placing the top chamber onto the bottom chamber and snapping the two together. 20 μl Matrigel growth factor reduced (GFR) (phenol-red free) basement membrane matrix (Cornig, ref: 356231) was diluted in 400 μl optimem (serum free) giving a final working concentration of GFR Matrigel of 5%. […]
The protocol is optimized for the two paired cancer cell lines: OVCAR3, OVCAR4 parental and OVCAR3, OVCAR4 platinum resistant cell lines. […] Once the CIM-Plate 16 has been equilibrated, it is placed in the RTCA DP station and the background cell-index values are measured. […] The CIM-Plate 16 is placed in the RTCA DP station and migration is monitored every 5 minutes for several hours.
Each experimental condition was performed in triplicate. For quantification of the migration rate, the slope of the curve was used to determine the rate if change in cell index. The average and standard deviation slope values were then quantified relative to that at the control condition.

[8] = Homo sapiens, OVCAR-3, 240 h, OVCAR3 cisplatin-resistant, 10-day colony formation (FIG. 42)
[9] = Homo sapiens, OVCAR-3, 240 h, OVCAR3 cisplatin-naïve, 10-day colony formation (FIG. 42)

IC50 [1]: 5570 nM | IC50 (OVCAR3-CP cells; [8]): 1190 nM | IC50 (OVCAR3-WT cells; [9]): 4990 nM
Compound: COc1cc2c(Oc3ccc4[nH]c(C)cc4c3F)ncnc2cc1OCCCN1CCCC1 [Cediranib]
fold change (OVCAR3-CP cells): 0.2391 | PFS ([2]; cediranib with platinum chemotherapy and maintenance (reference 9.4 months)): 11.4 months | overall survival ([2]; cediranib with platinum chemotherapy and maintenance (reference 17.6 months)): 20.3 months | HR for PFS ([2]; p-value=0.0022): 0.68 | HR for overall survival ([2]; p-value=0.0419): 0.70 | expression of the VEGFR ligand, VEGFa [3]: downregulated

IC50 [1]: 9100 nM | IC50 (OVCAR3-CP cells; [8]): 3780 nM | IC50 (OVCAR3-WT cells; [9]): > 10000 nM
Compound: COC(=O)c1ccc2c(c1)NC(=O)/C2=C(\Nc1ccc(N(C)C(=O)CN2CCN(C)CC2)cc1)c1ccccc1 [Nintedanib]
fold change (OVCAR3-CP cells): 0.377 | expression of the VEGFR ligand, VEGFa [3]: downregulated

Compound: N.N.[Cl][Pt][Cl] [cisplatin]
IC50 (OVCAR3-CP cells; OVCAR3-CP, cisplatin with addition of Trametinib): 60 nM | fold decrease in the IC50 (OVCAR3-CP cells; OVCAR3-CP, following addition of Trametinib to cisplatin): 4.8 fold | IC50 (OVCAR3-CP cells; cisplatin resistant OVCAR3 cells, colony formation (FIG. 2a)): 290 nM | fold difference in IC50 doses (OVCAR3-CP cells; cisplatin resistant vs cisplatin sensitive OVCAR3 cells): 4.4 fold | IC50 (OVCAR3-WT cells; OVCAR3-WT, cisplatin alone): 66 nM | IC50 (OVCAR3-WT cells; OVCAR3-WT, cisplatin with addition of 0.5 uM Trametinib): 33 nM | fold decrease in the IC50 (OVCAR3-WT cells; OVCAR3-WT, following addition of Trametinib to cisplatin): 2 fold | IC50 (OVCAR3-WT cells; cisplatin sensitive OVCAR3 cells, colony formation (FIG. 2a)): 66 nM

Compound: IRQQPRDPPTETLELEVSPDPAS (listed as Homo sapiens) [ALM201]
EMT markers [4]: reversing EMT markers | MAPK pathway [4]: downregulation of the MAPK pathway | proliferation capacity [5]: inhibited the proliferation capacity | migration potential [6]: inhibited | EMT signalling (Kuramochi cells): reduced | MAPK signalling (Kuramochi cells): reduced | invasion potential [7]: inhibited
